Results taken from paper PMC10897476, “Pyridylpiperazine efflux pump inhibitor boosts in vivo antibiotic efficacy against K. pneumoniae” (EMBO Molecular Medicine, 2023).
“And” between values parts separate entries of the source, which are not always exact repeats. Equal values may be shown once. Marks after values point to notes of the source that are not given here.

How the values were obtained:
[1] = test system: K. pneumoniae RamR^mut (K124*stop); assay: MIC of antibiotics with and without EPI (REMA), RamR mutant; assay type: cell-based, Klebsiella pneumoniae; conditions: for Minimum Inhibitory Concentration: K. pneumoniae RamR^mut
Method: MIC experiments were carried out according to the CLSI guidelines (CLSI [2023]). Overnight cultures were diluted to an OD600 = 0.001 in CAMHB followed by addition of efflux pump inhibitors (EPIs) at a final concentration of 100 µM. […] Plates were incubated at 37 °C for up to 20 h. Bacterial viability was evaluated using the resazurin microtitre assay (REMA) and measured by fluorescence using a Tecan Spaert multimode plate reader (Ex: 530 nm Em: 590 nm). MICs were defined as the concentration that prevented 90% of resazurin turnover compared to the non-treated bacteria.
Mutations in acrB or ramR identified in the BDM88855.HCl (1’) resistant mutant (a.k.a., KPJC11) were introduced individually into K. pneumoniae ATCC 43816 chromosome by allelic exchange (Cianfanelli et al, [2020]). Briefly, 1-kb PCR products centred around each point mutation were generated by amplifying acrB with primers RH1251 ([…][…]) and RH1252 ([…][…]) or ramR with primers RH1249 ([…][…]) and RH1250 ([…][…]) from KPJC11 genomic DNA. PCR fragments were cloned into pFOK (Cianfanelli et al, [2020]) using NEB-building kit ([New England Biolabs]) to generate pEP1533 and pEP1534. Correct plasmids were confirmed by sequencing and introduced into K. pneumoniae ATCC43816 WT via conjugation with the MFDpir+ E. coli donor strain. Exconjugants were selected on kanamycin (50 mg/L) plates at 37 °C and plasmid chromosomal integration was checked by PCR. […] The next day, cultures were diluted and plated onto LB agar. Isolated colonies were then patched onto LB plates with or without kanamycin (50 mg/L) and Km^S candidates were evaluated for correct allelic exchange via acrB or ramR sequencing and then WGS to confirm no additional mutations were introduced.

[2] = test system: K. pneumoniae AcrB variant V448E; assay: Berberine accumulation assay, K. pneumoniae AcrB V448E; assay type: cell-based, Klebsiella pneumoniae; conditions: K. pneumoniae producing AcrB variant V448E
Method: The accumulation of the berberine AcrB substrate in K. pneumoniae WT and AcrB-V448E cells in the presence of different BDM91288 (5) concentrations was determined as described (Plé et al, [2022]) with minor modifications. Briefly, an overnight LB pre-culture of each strain (0.6 mL) was used to inoculate a 30-mL LB culture and incubated for around 2 h (37 °C, 150 rpm) to reach OD600 around 1. Cells were harvested by centrifugation (4000 × g, 10 min at 4 °C), washed three times with 10 mL of ice-cold buffer (50 mM potassium-phosphate pH 7.5 and 1 mM MgSO4) and resuspended into the same buffer containing also 0.2% glucose to an OD600 of 2. The bacterial suspension was then allowed to reach room temperature, after which 200 µL was dispensed to wells of an assay ready 96-black-well plate (Greiner Bio-One) containing 2 µL of 100× concentrated serial dilution of BDM91288 (5). To initiate the uptake experiment, 2 µL of berberine 20 mM (final concentration of 200 µM) was added to each well and transferred to a microplate fluorescence plate reader (Spark, Tecan), where the kinetics of berberine uptake was monitored for 20 min at 30 °C (excitation 365 nm/emission 540 nm). Experiments were performed 4 independent times, and berberine uptake was calculated for all conditions as the rate of fluorescence increase over the first 10 min and expressed as RFU/min (mean ± SD). […]

[3] = test system: K. pneumoniae ATCC 43816; assay: K. pneumoniae mouse lung infection (lung CFU); assay type: in vivo, Klebsiella pneumoniae; conditions: for reduction in lung bacterial load compared to untreated mice: at 24 h
From the text: Mice experiments complied with national, institutional and European regulations and ethical guidelines, were in accordance with ARRIVE guidelines 2.0 and were approved by the Institutional Animal Care and Use Committee (animal facility agreement D59-350009, Institut Pasteur de Lille, protocol reference: APAFIS#25953, 2020060916081461_v2). Six to eight weeks old female C57BL/6JRj mice were purchased from Janvier Laboratories (Saint Berthevin, France), allocated into experimental groups in a random fashion and maintained in individually ventilated cages (Innorack® IVC Mouse 3.5) and handled in a vertical laminar flow biosafety cabinet (Class II Biohazard, Tecniplast). All infections were performed in an animal biosafety level 2 facility.
Inoculum was prepared as follows. Tryptic Soy broth was inoculated with K. pneumoniae from a frozen stock and grown overnight at 37 °C without shaking. 1 mL of this overnight bacterial culture was transferred to a warm fresh Tryptic Soy broth and grown at 37 °C until it reached the mid-log. Cells were pelleted, washed with PBS and resuspended to the appropriate concentration.
22 h post-infection, mice were treated with BDM91288 (5) (30 mg/kg, 200 µL, formulated in 10% hydroxypropyl-beta-cyclodextrine (Kleptose HP; Roquette) at 3 mg/mL) by intragastric route. […] At 4 h or 24 h post antibiotic treatment, mice were euthanized by cervical dislocation. Lungs were collected in 1 mL of PBS, homogenized with a T-25 digital Ultraturrax® (IKA). CFU counts were determined by plating serial dilutions onto Tryptic Soy agar plate.

SMILES	EPI mediated antibiotic boosting, in words ([1]; K. pneumoniae-RamR^mut, Table 2)	concentration-dependent stimulation of berberine uptake [2]	CFU counts, lung, single animals ([3]; 4h post-treatment, BDM91288 + levofloxacin 10mg/kg)	CFU counts, lung, single animals ([3]; 4h post-treatment, BDM91288 alone)	CFU counts, lung, single animals ([3]; 24h post-treatment, BDM91288 + levofloxacin 10mg/kg)	CFU counts, lung, single animals ([3]; 24h post-treatment, BDM91288 alone)	impact on the K. pneumoniae bacterial load in the lungs ([3]; single dose 30 mg/kg p.o., alone)	Minimum Inhibitory Concentration ([1]; + 100 µM 1')	Minimum Inhibitory Concentration ([1]; + 100 µM 5)	Minimum Inhibitory Concentration ([1]; + 100 µM PAβN)	MIC ([1]; Klebsiella pneumoniae, read-out: Minimum Inhibitory Concentration) [µg/mL]	CFU counts, lung, single animals ([3]; 4h post-treatment, levofloxacin 10mg/kg)	CFU counts, lung, single animals ([3]; 4h post-treatment, levofloxacin 50mg/kg)	CFU counts, lung, single animals ([3]; 24h post-treatment, levofloxacin 10mg/kg)	CFU counts, lung, single animals ([3]; 24h post-treatment, levofloxacin 50mg/kg)	reduction in lung bacterial load compared to untreated mice ([3]; single dose 10 mg/kg i.p.) [log]	reduction in lung bacterial load compared to untreated mice ([3]; single dose 50 mg/kg i.p.) [log]
Clc1cc2cc(N3CCNCC3)ccc2nc1N1CCNCC1 [compound 5]	maintained	not observed	250 CFU and 1500 CFU and 667 CFU and 267 CFU and 483 CFU and 1830 CFU and 1670 CFU and 500 CFU and 1170 CFU and 517 CFU and 833 CFU and 383 CFU and 650 CFU and 550 CFU and 450 CFU and 2670 CFU and 3170 CFU and 1000 CFU and 583 CFU	433000 CFU and 400000 CFU and 533000 CFU and 817000 CFU and 13800000 CFU and 2670000 CFU and 5170000 CFU and 2330000 CFU and 550000 CFU and 700000 CFU and 1830000 CFU and 250000 CFU and 1030000 CFU and 600000 CFU and 1120000 CFU and 317000 CFU and 1380000 CFU and 167000 CFU and 2500000 CFU and 450000 CFU and 267000 CFU and 567000 CFU	16.7 CFU and 1500 CFU and 117 CFU and 200 CFU and 850 CFU and 517 CFU and 350 CFU and 683 CFU and 283 CFU	98300 CFU and 4500000 CFU and 26700000 CFU and 31700000 CFU and 28300000 CFU and 1650000 CFU and 18300000 CFU and 13300000 CFU and 10000000 CFU and 12300000 CFU and 6170000 CFU and 7000000 CFU and 20000000 CFU and 483000 CFU and 16700000 CFU	no impact										
C[C@H]1COc2c(N3CCN(C)CC3)c(F)cc3c(=O)c(C(=O)O)cn1c23 [Levofloxacin]								0.08^# mg/L	0.05^# mg/L	0.04^# mg/L	0.64	2830 CFU and 567 CFU and 1330 CFU and 3170 CFU and 3670 CFU and 1830 CFU and 4670 CFU and 7670 CFU and 717 CFU and 3330 CFU and 2170 CFU and 833 CFU and 2000 CFU and 500 CFU and 450 CFU and 150 CFU	200 CFU and 50 CFU and 267 CFU and 16.7 CFU and 117 CFU and 350 CFU and 583 CFU and 450 CFU and 833 CFU and 1000 CFU and 133 CFU and 667 CFU and 1330 CFU and 1500 CFU and 1170 CFU and 367 CFU	117 CFU and 83.3 CFU and 15300 CFU and 26700 CFU and 7500 CFU and 1000 CFU and 6330 CFU and 9170 CFU	16.7 CFU and 167 CFU and 66.7 CFU and 50 CFU and 100 CFU and 83.3 CFU	3.2	5.9
